Test results: patent US20120225889A1, “USE OF MACROCYCLIC LACTONE DERIVATIVES FOR THE TREATMENT OF INFLAMMATORY DISORDERS” (PIRAMAL LIFE SCIENCES LIMITED, priority 2010, published 2012)

Assays:
[1] = test system: MMP13; test: Gene expression profile using RTQ-PCR: MMP13; format: cell-based, human; details: 3 μM
Experimental: (§1) The effect of the compound of example 7 was measured in stimulated untreated cells from the monocytic cell line (THP-1), human monocytes and synovial cells from rheumatoid arthritis patient. The effect of the compound in the THP-1 cell line was measured in terms of gene expression and was expressed as fold changes as compared to the cell stimulated control with no drug treatment.
(§2) THP-1 cells, human monocytes and synovial cells were treated with compound of example 7 or vehicle (0.5% DMSO). Total RNA isolation using a commercial RNA extraction kit (Qiagen Corporation, Germany) The first-strand cDNA was synthesized from total RNA using first strand cDNA synthesis kit from Invitrogen Corporation (California, USA). This was followed by real time quantitative polymerase chain reaction (RTQ PCR) using gene specific primers and standard thermal program of initial denaturation at 95° C. for 5 min and cycles of 95° C. for 10 seconds, followed by 60° C. for 30 seconds (Realplex PCR machine from Eppendorf, Germany). Quantitative measurement of products made during PCR cycles was normalized against a housekeeping gene (Actin) and was used to measure the gene expression as fold changes as compared to respective control.

[2] = test system: GBP-1; test: Gene expression profile using RTQ-PCR: GBP-1; format: cell-based, human; details: 3 μM, 12 h
Experimental: as §1, §2

[3] = test system: IL-6; test: Human monocyte assay (LPS-induced): IL-6; format: cell-based; details: LPS stimulated human monocytes, 5 h
Source text: The assay was designed as in reference, Physiological Research, 52, 593-598, (2003), the disclosure of which is incorporated by reference for the teaching of the assay.
The objective of the assay is to determine whether compounds of the present invention—mediated inhibition of LPS-induced cytokines from monocytic THP-1 cell line translates to physiologically relevant human cells. Accordingly, the effect of compounds of the present invention on LPS—induced cytokine production from freshly isolated human monocytes was ascertained.
Peripheral blood was collected from healthy donors into potassium EDTA vacutainer tubes (BD Biosciences, USA). hPBMCs were isolated using density gradient separation (Histopaque-1077; Sigma, USA) and suspended in assay medium which is RPMI culture medium (Sigma, USA) containing 10% heat inactivated FBS (JRH Biosciences, Australia), 100 U/mL penicillin (Sigma, USA) and […] streptomycin (Sigma, USA). Monocytes in the hPBMCs were counted using a Coulter Counter following which the cells were resuspended at 2×10^5 monocytes/mL of assay medium. A cell suspension containing 2×10^4 monocytes was aliquoted per well of a 96-well plate (Nunc, USA). Subsequently, the hPBMCs were incubated for 4-5 h at 37° C., 5% CO2. During the incubation, the monocytes adhered to the bottom of 96-well plate. Following the incubation, the non-adherent lymphocytes were washed and assay medium was added to adherent monocytes. After 48 h of incubation at 37° C., 5% CO2, monocytes were pre-treated with various concentrations of test compound (prepared as 20 mM stock in DMSO; 1 μL of […] concentrated solution of test compound was dissolved in 200 μL cell suspension to achieve a final concentration of 0.03, 0.1, 0.3, 1, 3, 10, 30 and 100 μM) or vehicle (0.5% DMSO) or 10 μM dexamethasone (standard IL-6 and TNF-α inhibitor, Sigma, USA) for 30 min at 37° C., 5% CO2 and stimulated with 1 μg/mL LPS (Escherchia coli 0111:B4, Sigma, USA). The cells were then incubated for 5 h at 37° C., 5% CO2 following which supernatants were collected, stored at −70° C. and were assayed later for IL-6, and TNF-α by ELISA (OptiEIA ELISA sets, BD Biosciences, USA). The IC50 values were calculated by a nonlinear regression method using Graph Pad software (Prism 3.03).

For `C/C=C/C(O)C(C)/C=C/C(=N\O)C(C)C(O)C(C)C1OC(=O)/C(OC)=C/C(C)=C/C(C)C(O)C(CC)C(O)C(C)C/C(C)=C/C=C/C1OC` (stereo not drawn) [Compound of example 7, (3Z,5E,13E,15E)-18-((5Z,6E,10E)-3,9-Dihydroxy-5-(hydroxymino)-4,8-dimethyldodeca-6,10-dien-2-yl)-9-ethyl-8,10-dihydroxy-3,17-dimethoxy-5,7,11,13-tetramethyl oxacyclooctadeca-3,5,13,15-tetraen-2-one], the MMP13 gene expression ([1]; Human monocytes, 3 h, ± SE, N = 3) was −2.2 + 2.0 log fold change, the MMP13 gene expression ([1]; Synovial cells, 12 h, N = 1) was −4.0 log fold change and the MMP13 gene expression ([1]; THP-1 cells, 12 h, ± SE, N = 3) was −4.1 + 3.5 log fold change. For the same molecule, the GBP-1 gene expression ([2]; Synovial cells, N = 1) was −1.5 log fold change, the GBP-1 gene expression ([2]; THP-1 cells, ± SE, N = 3) was −1.6 + 1.0 log fold change and the IC50 [3] was 0.3 µM.
